“And” between values parts separate entries of the source, which are not always exact repeats. Identical values can stand only once. Like-named read-outs stand apart in the source and are kept apart here. One block for each substance: values may come before it. Starred links: 1 amine or outer side, 2 acyl side, 3 side chain; linkers in the order of their positions; H or OH if unused. Positions of bridges follow the written chain, without caps; N, C: chain ends. No end group written: not given here. Pyridine(2,6-diCH2) = c1cc(C[*:1])nc(C[*:2])c1; mXylylene = c1cc(C[*:1])cc(C[*:2])c1; oXylylene = c1ccc(C[*:2])c(C[*:1])c1; X1 = O=C(C[*:1])[*:2]
Legend:
[1] = biological target: T1, human serum albumin (HSA) (Homo sapiens, UniProt P02768); experiment: SPR biosensor (ProteOn XPR36) screening of binding to immobilized HSA; settings: 50 nM polypeptide, 2500 RU immobilized HSA, 25 °C
Procedure: Biosensor binding analyses were performed on a ProteOn XPR36 instrument (Bio-Rad) at 25° C. using PBST (150 mM NaCl, 8 mM Na2HPO4, 2 mM NaH2PO4, 0.005% Tween20, pH 7.4) as running buffer at a flow rate of 50 μl min^−1. An injection of 30 μl of 20 mM HCl at a flow rate of 100 μl min^−1 was used for chip regeneration. In a screening experiment, the binding of all polypeptide variants to human serum albumin (HSA) was investigated. The proteins were diluted to 50 nM in running buffer and injected over a chip surface with 2500 RU of immobilized HSA. The association was studied for 300 s and the dissociation was followed for 7200 s (2 h). For data analysis, all samples were double referenced; the signal from a blank surface was first subtracted from the signal from the respective protein, and secondly the signal from an injection of PBST (running buffer) over the HSA surface was subtracted.

trypsin and chymotrypsin = experiment: Protease degradation analysis with trypsin and chymotrypsin (RP-HPLC of intact polypeptide); assay type: in vitro ADME, bovine; settings: for Resistance towards degradation by trypsin and chymotrypsin, screening / AUC increase / resistance towards degradation by trypsin together with chymotrypsin compared to PEP07830: 2.7 μg ml^−1 trypsin, 1.2 μg ml^−1 chymotrypsin, 37 °C; for Resistance towards degradation by trypsin and chymotrypsin, screening: PBS pH 7.4, 10 min; for AUC increase / resistance towards degradation by trypsin together with chymotrypsin compared to PEP07830: 0-60 min
Procedure: (§1) Proteolytic degradation was studied using pepsin (obtained from porcine gastric mucosa, 3200-4500 U mg^−1, Sigma) and a mixture of trypsin (obtained from bovine pancreas, ≈37 U mg^−1, Sigma) and chymotrypsin (obtained from bovine pancreas, ≥40 U mg^−1, Sigma). In all degradation experiments, 5 μg protein in PBS (pH 7.4) at a concentration of 0.25 mg ml^−1 (50 μM) was used.
5 μg of each variant was transferred to a microcentrifuge tube. 32 μl PBS (pH 7.4) with trypsin at a concentration of 4.39 μg ml^−1 and chymotrypsin at a concentration of 1.95 μg ml^−1 was added to yield a final concentration of 2.7 μg ml^−1 of trypsin and 1.2 μg ml^−1 of chymotrypsin. In the screening experiment, the samples were incubated for 10 min at 37° C. before the enzyme was inactivated by addition of 3 μl 10% TFA and then the sample was put on ice. A reference sample of each protein was inactivated with TFA before the trypsin and chymotrypsin were added to the tube.
The degradation over time was monitored for PEP18049_CL, PEP14788_CL_A and the reference polypeptide PEP07830 by incubation for 3, 6, 12, 30, or 60 min at 37° C. before inactivation with TFA. As above, reference samples, inactivated with TFA before trypsin and chymotrypsin were added to the tube, were incubated likewise.
(§2) All samples were analyzed by RP-HPLC using an analytical column (Zorbax 300SB-C18, 4.6×150 mm, 3.5 μm particle size, Agilent Technologies) and a gradient of 15-45% solvent B (solvent A: 0.1% TFA-H2O; solvent B: 0.1% TFA-CH3CN) over 25 min at a flow rate of 1.2 ml min^−1 and LC-ESI-MS on a 6520 Accurate Mass Q-TOF LC/MS.
(§3) The elution peaks containing the intact polypeptides were integrated and the area under curve was calculated. The degradation experiments over time were performed in triplicates. The integrated area of each sample was normalized to the mean area of the t=0 samples of that variant, the mean and standard error of the mean were calculated for each time point.
(§4) To quantify the stability improvement of the crosslinked variants, the AUC (area under curve) from the normalized charts was calculated for the three investigated variants. The AUC of the crosslinked variants was then compared to the AUC of the reference polypeptide.

pepsin = biological target: T2, pepsin (Sus scrofa, UniProt P00791); experiment: Protease degradation analysis with pepsin (RP-HPLC of intact polypeptide); assay type: in vitro ADME, porcine; settings: for Resistance towards degradation by pepsin, screening: 2 μg ml^−1 pepsin, pH around 2.6, 10 min; for Resistance towards degradation by pepsin, screening / AUC increase / resistance towards degradation by pepsin compared to PEP07830: 37 °C; for AUC increase / resistance towards degradation by pepsin compared to PEP07830: 0.5 μg ml^−1 pepsin, 0-60 min
T2 construct: purchased Sigma; host or cells: porcine gastric mucosa
T2 sequence (P00791 60-385): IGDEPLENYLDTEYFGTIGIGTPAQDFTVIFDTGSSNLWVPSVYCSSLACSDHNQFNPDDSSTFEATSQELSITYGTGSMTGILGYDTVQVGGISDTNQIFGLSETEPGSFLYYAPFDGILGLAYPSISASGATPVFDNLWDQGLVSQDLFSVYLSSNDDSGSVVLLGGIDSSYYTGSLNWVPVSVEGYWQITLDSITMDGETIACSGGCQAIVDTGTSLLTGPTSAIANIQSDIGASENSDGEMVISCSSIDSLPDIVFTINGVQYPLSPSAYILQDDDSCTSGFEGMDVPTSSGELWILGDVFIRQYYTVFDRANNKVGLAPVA
Procedure: as §1
5 μg of each variant was transferred to a microcentrifuge tube. 32 μl 10 mM HCl with pepsin at a concentration of 3.25 μg ml^−1 or 0.81 μg ml^−1, resulting in a pH around 2.6 and a final pepsin concentration of 2 μg ml^−1 to be used for screening experiment and 0.5 μg ml^−1 for studying the degradation over time. In the screening experiment, the samples were incubated for 10 min at 37° C. before the enzyme was inactivated by addition of 5 μl 0.1 M NaOH, which raised the pH to above 9, and then the sample was put on ice. A reference sample of each protein was inactivated with NaOH before pepsin was added to the tube.
The degradation over time was monitored for PEP18049_CL, PEP14788_CL_A and the reference polypeptide PEP07830 by incubation for 3, 6, 12, 30 or 60 min at 37° C. before inactivation with NaOH. Reference samples, inactivated with NaOH before the pepsin was added to the tube, were incubated likewise.
as §2, §3, §4

[2] = biological target: T1, human serum albumin (HSA); experiment: SPR biosensor (ProteOn XPR36) HSA binding kinetics, 1:1 Langmuir fit; settings: for comparison only; for kon / koff: triplicate, mean (±SD), relative values; for kon: read-out: ka (association rate constant); for koff: read-out: kd (dissociation rate constant)
Procedure: The HSA binding kinetics of PEP18049_CL and the reference protein PEP07830 were further studied using a sensor chip with HSA immobilized on three different surfaces to between 1100 RU and 1600 RU. The proteins were diluted in running buffer (0.8, 1.6, 3.3, and 6.6 nM for PEP18049_CL and 1.0, 2.0, 4.0 and 8.0 nM for PEP07830) and injected over the three HSA surfaces and thus giving binding curves in triplicate. The association time was 300 s and the dissociation was followed for 36 000 s (10 h).
The kinetic parameters of the binding of PEP18049_CL and the reference protein PEP07830 to HSA were obtained from fitting the obtained sensorgrams to a 1:1 Langmuir binding model using the ProteOn Manager software version 3.1.0.6 (Bio-Rad). The average association rate constant (ka (M^−1 s^−1) and dissociation rate constant (kd (s^−1)) with standard deviation were calculated. From the average ka and the kd the dissociation equilibrium constant (KD (M)) was calculated (KD=kd/ka).

[3] = Circular dichroism variable temperature measurement (melting temperature); assay type: physicochemical; settings: CD at 221 nm, 20-90 °C, 50 μM in PBS pH 7.4
Procedure: Polypeptides were dissolved in PBS (pH 7.4) to a concentration of 50 μM (approximately 0.25 mg ml^−1) and CD spectra and melting curves were collected on a Jasco J-810 spectropolarimeter (Jasco) using a cell with an optical path-length of 1 mm. Variable temperature measurements, VTM, were used to determine Tm. In these measurements, the […] was measured at 221 nm from 20° C. to 90° C., with a temperature slope of 5° C. min^−1. The secondary structure of each variant was analyzed by recording a spectrum ranging from 250 to 195 nm at 20° C., both before and after VTM.

[4] = human, HSA immobilized on SPR sensor chip (ProteOn XPR36)
[5] = LC-ESI-MS of degradation products

Substance: PEP18051_CL: SEQ ID NO:1770 (PEP18051), control polypeptide, crosslinked Cys1-Lys29 (CAEAKEAANAELDSYGVSDFYKRLIDKAKTVEGVEALKDAILAALP; Cys1-Lys29 crosslink; Engineered albumin binding polypeptide)
HSA binding in screening experiment [1]: slower on-rate, but also seemed to have a very slow off-rate indicating a high affinity for HSA

Substance: LAEAKEAANAELDSYGCSDFYKRLIDKAKTVEGVEALKDAILAACP-NH2 (linker 17-45 via Pyridine(2,6-diCH2)) [PEP14788_CL_E]
Resistance towards degradation by trypsin and chymotrypsin, screening (trypsin and chymotrypsin): no significant difference between these variants
Resistance towards degradation by pepsin, screening (pepsin): no significant difference between these variants

Substance: LAEAKEAANAELDSYGCSDFYKRLIDKAKTVEGVEALKDAILAACP-NH2 (linker 17-45 via oXylylene) [PEP14788_CL_A]
AUC increase / resistance towards degradation by trypsin together with chymotrypsin compared to PEP07830 (trypsin and chymotrypsin): 1.4 fold
Resistance towards degradation by trypsin and chymotrypsin, screening (trypsin and chymotrypsin): no significant difference between these variants
AUC increase / resistance towards degradation by pepsin compared to PEP07830 (pepsin): 2.4 fold
Resistance towards degradation by pepsin, screening (pepsin): no significant difference between these variants

Substance: LAEAKEAANAELDSYGVSDFYKRLIDKAKTVEGVEALKDAILAALP-NH2 (C-terminus assumed) [PEP07830, reference compound]
Kd ([2]; human, KD=kd/ka from average ka and kd): 0.021 nM
kon ([2]; human): 190000 M⁻¹ s⁻¹
koff ([2]; human): 4.1e-06 s⁻¹
Kd ([2]; human, triplicates): ~0.021 nM
Peptide bond most susceptible for cleavage by trypsin and chymotrypsin (trypsin and chymotrypsin; [5]): between Tyr21 and Lys22
Peptide bond rapidly cleaved by pepsin (major degradation products) (pepsin; [5]): between Leu42 and Ala43

Substance: LAEAKEAANAELDSYGCSDFYKRLIDKAKTVEGVEALKDAILAACP-NH2 (linker 17-45 via mXylylene) [PEP14788_CL_B]
Resistance towards degradation by trypsin and chymotrypsin, screening (trypsin and chymotrypsin): no significant difference between these variants
Resistance towards degradation by pepsin, screening (pepsin): no significant difference between these variants

Second part, led by results:

kon [2, 4]: 620000 M⁻¹ s⁻¹
koff [2, 4]: 1.5e-05 s⁻¹
Kd ([2]; triplicates): ~0.024 nM and 0.024 nM
AUC increase / resistance towards degradation by trypsin together with chymotrypsin compared to PEP07830 (trypsin and chymotrypsin): 5 fold
Resistance towards degradation by trypsin and chymotrypsin, screening (trypsin and chymotrypsin): increased resistance towards degradation
AUC increase / resistance towards degradation by pepsin compared to PEP07830 (pepsin): 17 fold
Resistance towards degradation by pepsin, screening (pepsin): increased resistance towards degradation
Tm (melting temperature) [3]: 63 °C
Substance: Ac-LAEAKEAANAELDSYGCSDFYKRLIDKAKTVEGVEALKDAILAAKP-NH2 (linker 17-45 via X1) [PEP18049_CL]
HSA binding in screening experiment [1]: fast on-rate and a two phase-like dissociation

HSA binding in screening experiment [1]: completely lost their affinity for HSA
Substance: PEP18050_CL: SEQ ID NO:1769 (PEP18050), control polypeptide, crosslinked Lys5-Cys28 (LAEAKEAANAELDSYGVSDFYKRLIDKCKTVEGVEALKDAILAALP; Lys5-Cys28 crosslink; Engineered albumin binding polypeptide)

HSA binding in screening experiment [1]: completely lost their affinity for HSA
Substance: PEP18052_CL: SEQ ID NO:1771 (PEP18052), control polypeptide, double crosslinked (LAEAKEAANAELDSYGCSDFYKRLIDKCKTVEGVEALKDAILAAKP; double crosslinked; Engineered albumin binding polypeptide)

HSA binding in screening experiment [1]: weak binding
Substance: PEP18053_CL: SEQ ID NO:1772 (PEP18053), control polypeptide, double crosslinked (CAEAKEAANAELDSYGCSDFYKRLIDKAKTVEGVEALKDAILAAKP; double crosslinked; Engineered albumin binding polypeptide)
